Test results taken from ChEMBL document CHEMBL4229455, “Synthesis and anticancer activity of novel bisindolylhydroxymaleimide derivatives with potent GSK-3 kinase inhibition” (Bioorg Med Chem, 2018).

Key:
Aurora kinase B = Aurora kinase B (Homo sapiens, UniProt Q96GD4); assay: Inhibition of recombinant full length human aurora B expressed in baculovirus infected Sf9 insect cells using MBP as substrate in presence of [gamma-33P]ATP
[1] = molecular target: Cyclin-dependent kinase 5/CDK5 activator 1 (Homo sapiens, UniProt Q00535); assay: Inhibition of recombinant full length human CDK5/p25 expressed in bacteria using histone H1 as substrate in presence of [gamma-33P]ATP
[2] = Inhibition of domestic porcine brain full length […] using RRKHAAIGSpAYSITA as substrate in presence of [gamma-33P]ATP; set-up: species or system Sus scrofa domesticus
[3] = molecular target: Receptor-interacting serine/threonine-protein kinase 3 (Homo sapiens, UniProt Q9Y572); assay: Inhibition of recombinant full length human RIPK3 expressed in baculovirus infected Sf9 insect cells assessed as residual activity at 10 uM using MBP as substrate in presence of [gamma-33P]ATP
[4] = molecular target: CDK2/Cyclin A2 (Homo sapiens) (UniProt P24941+P20248); assay: Inhibition of full length human CDK2/cyclin A assessed as residual activity at 10 uM using histone H1 as substrate in presence of [gamma-33P]ATP; format: protein-complex assay
[5] = molecular target: CDK9/cyclin T1 (Homo sapiens) (UniProt O60563+P50750); assay: Inhibition of recombinant full length human CDK9/cyclin T expressed in baculovirus infected Sf9 insect cells assessed as residual activity at 10 uM using YSPTSPSYSPTSPSYSPTSPSKKKK as substrate in presence of [gamma-33P]ATP
[6] = molecular target: Dual specificity tyrosine-phosphorylation-regulated kinase 1A (Rattus norvegicus) (UniProt Q63470); assay: Inhibition of recombinant rat DYRK1A kinase domain expressed in bacteria assessed as residual activity at 10 uM using KKISGRLSPIMTEQ as substrate in presence of [gamma-33P]ATP
[7] = molecular target: Serine/threonine-protein kinase pim-1 (Homo sapiens, UniProt P11309); assay: Inhibition of recombinant full length human PIM1 expressed in bacteria assessed as residual activity at 10 uM using histone H1 as substrate in presence of [gamma-33P]ATP
Sus scrofa domesticus = organism: Sus scrofa domesticus; assay: Inhibition of domestic porcine brain full length […] assessed as residual activity at 10 uM using RRKHAAIGSpAYSITA as substrate in presence of [gamma-33P]ATP
K562 = assay: Cytotoxicity against human K562 cells assessed as cell growth at 10 uM after 48 hrs by SRB assay relative to control; format: functional; details: K562, 48 h, read-out: Activity
A549 = assay: Cytotoxicity against human A549 cells assessed as cell growth at 10 uM after 48 hrs by SRB assay relative to control; format: functional; details: A549, 48 h, read-out: Activity
NCI-H226 = assay: Cytotoxicity against human NCI-H226 cells assessed as cell growth at 10 uM after 48 hrs by SRB assay relative to control; format: functional; details: NCI-H226, 48 h, read-out: Activity
NCI-H23 = assay: Cytotoxicity against human NCI-H23 cells assessed as cell growth at 10 uM after 48 hrs by SRB assay relative to control; format: functional; details: NCI-H23, 48 h, read-out: Activity
NCI-H522 = assay: Cytotoxicity against human NCI-H522 cells assessed as cell growth at 10 uM after 48 hrs by SRB assay relative to control; format: functional; details: NCI-H522, 48 h, read-out: Activity
SF-268 = assay: Cytotoxicity against human SF268 cells assessed as cell growth at 10 uM after 48 hrs by SRB assay relative to control; format: functional; details: SF-268, 48 h, read-out: Activity
SF-295 = assay: Cytotoxicity against human SF295 cells assessed as cell growth at 10 uM after 48 hrs by SRB assay relative to control; format: functional; details: SF-295, 48 h, read-out: Activity
SNB-75 = assay: Cytotoxicity against human SNB75 cells assessed as cell growth at 10 uM after 48 hrs by SRB assay relative to control; format: functional; details: SNB-75, 48 h, read-out: Activity
M14 = assay: Cytotoxicity against human M14 cells assessed as cell growth at 10 uM after 48 hrs by SRB assay relative to control; format: functional; details: M14, 48 h, read-out: Activity
UACC-62 = assay: Cytotoxicity against human UACC62 cells assessed as cell growth at 10 uM after 48 hrs by SRB assay relative to control; format: functional; details: UACC-62, 48 h, read-out: Activity
IGROV-1 = assay: Cytotoxicity against human IGROV1 cells assessed as cell growth at 10 uM after 48 hrs by SRB assay relative to control; format: functional; details: IGROV-1, 48 h, read-out: Activity
OVCAR-5 = assay: Cytotoxicity against human OVCAR5 cells assessed as cell growth at 10 uM after 48 hrs by SRB assay relative to control; format: functional; details: OVCAR-5, 48 h, read-out: Activity
OVCAR-8 = assay: Cytotoxicity against human OVCAR8 cells assessed as cell growth at 10 uM after 48 hrs by SRB assay relative to control; format: functional; details: OVCAR-8, 48 h, read-out: Activity
NCI/ADR-RES = assay: Cytotoxicity against human NCI-ADR-RES cells assessed as cell growth at 10 uM after 48 hrs by SRB assay relative to control; format: functional; details: read-out: Activity
ACHN = assay: Cytotoxicity against human ACHN cells assessed as cell growth at 10 uM after 48 hrs by SRB assay relative to control; format: functional; details: read-out: Activity
CAKI-1 = assay: Cytotoxicity against human Caki1 cells assessed as cell growth at 10 uM after 48 hrs by SRB assay relative to control; format: functional; details: CAKI-1, 48 h, read-out: Activity
MCF7 = assay: Cytotoxicity against human MCF7 cells assessed as cell growth at 10 uM after 48 hrs by SRB assay relative to control; format: functional; details: MCF7, 48 h, read-out: Activity
MDA-MB-468 = assay: Cytotoxicity against human MDA-MB-468 cells assessed as cell growth at 10 uM after 48 hrs by SRB assay relative to control; format: functional; details: MDA-MB-468, 48 h, read-out: Activity
NCI-H322M = assay: Cytotoxicity against human NCI-H322M cells assessed as cell growth at 10 uM after 48 hrs by SRB assay relative to control; format: functional; details: read-out: Activity
COLO 205 = assay: Cytotoxicity against human COLO205 cells assessed as cell growth at 10 uM after 48 hrs by SRB assay relative to control; format: functional; details: COLO 205, 48 h, read-out: Activity
786-0 = assay: Cytotoxicity against human 786-O cells assessed as cell growth at 10 uM after 48 hrs by SRB assay relative to control; format: functional; details: 786-0, 48 h, read-out: Activity
EKVX = assay: Cytotoxicity against human EKVX cells assessed as cell growth at 10 uM after 48 hrs by SRB assay relative to control; format: functional; details: read-out: Activity

Sequence of Cyclin-dependent kinase 5/CDK5 activator 1 (Q00535 whole entry): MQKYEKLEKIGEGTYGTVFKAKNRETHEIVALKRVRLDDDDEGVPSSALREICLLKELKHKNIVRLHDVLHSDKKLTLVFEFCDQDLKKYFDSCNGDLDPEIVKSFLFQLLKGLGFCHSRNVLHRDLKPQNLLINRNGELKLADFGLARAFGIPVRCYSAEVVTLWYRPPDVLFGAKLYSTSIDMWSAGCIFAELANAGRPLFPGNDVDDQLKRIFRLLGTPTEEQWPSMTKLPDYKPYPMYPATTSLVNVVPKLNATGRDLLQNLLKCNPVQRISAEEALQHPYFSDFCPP
Sequence of Cyclin-dependent kinase 5/CDK5 activator 1 (Q15078 whole entry, further chain): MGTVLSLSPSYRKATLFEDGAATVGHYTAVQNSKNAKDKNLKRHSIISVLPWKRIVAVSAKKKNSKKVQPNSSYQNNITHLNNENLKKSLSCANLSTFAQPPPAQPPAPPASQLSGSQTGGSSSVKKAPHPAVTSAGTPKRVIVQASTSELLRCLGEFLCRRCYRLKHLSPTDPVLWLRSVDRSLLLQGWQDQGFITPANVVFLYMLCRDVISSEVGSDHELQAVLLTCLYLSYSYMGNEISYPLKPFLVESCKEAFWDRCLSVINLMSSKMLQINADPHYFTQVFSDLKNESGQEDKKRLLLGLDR
Sequence of Serine/threonine-protein kinase pim-1 (P11309 whole entry, looked up): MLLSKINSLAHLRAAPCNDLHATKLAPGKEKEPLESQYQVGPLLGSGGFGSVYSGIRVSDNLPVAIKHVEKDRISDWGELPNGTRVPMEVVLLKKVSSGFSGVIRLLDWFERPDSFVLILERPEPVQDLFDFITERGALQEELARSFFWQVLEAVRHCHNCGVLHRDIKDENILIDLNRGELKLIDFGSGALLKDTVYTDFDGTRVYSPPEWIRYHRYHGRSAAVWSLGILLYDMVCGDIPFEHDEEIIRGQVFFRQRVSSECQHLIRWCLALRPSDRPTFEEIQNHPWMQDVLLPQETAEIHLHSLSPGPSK
Sequence of Receptor-interacting serine/threonine-protein kinase 3 (Q9Y572 whole entry, looked up): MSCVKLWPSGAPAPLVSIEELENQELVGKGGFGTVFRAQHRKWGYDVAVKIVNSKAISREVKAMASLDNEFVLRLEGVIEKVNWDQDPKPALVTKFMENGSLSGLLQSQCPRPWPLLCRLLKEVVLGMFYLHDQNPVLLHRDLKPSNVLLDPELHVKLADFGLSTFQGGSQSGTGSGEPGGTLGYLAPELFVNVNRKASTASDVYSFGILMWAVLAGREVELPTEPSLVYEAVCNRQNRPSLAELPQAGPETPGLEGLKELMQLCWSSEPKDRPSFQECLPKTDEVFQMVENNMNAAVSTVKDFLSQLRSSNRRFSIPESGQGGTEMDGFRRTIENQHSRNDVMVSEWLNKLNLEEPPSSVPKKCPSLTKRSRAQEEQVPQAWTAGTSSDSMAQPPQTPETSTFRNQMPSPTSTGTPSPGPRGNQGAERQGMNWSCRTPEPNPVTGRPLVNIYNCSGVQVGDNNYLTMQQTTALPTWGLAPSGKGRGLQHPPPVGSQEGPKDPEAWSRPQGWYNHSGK
Sequence of Aurora kinase B (Q96GD4 whole entry): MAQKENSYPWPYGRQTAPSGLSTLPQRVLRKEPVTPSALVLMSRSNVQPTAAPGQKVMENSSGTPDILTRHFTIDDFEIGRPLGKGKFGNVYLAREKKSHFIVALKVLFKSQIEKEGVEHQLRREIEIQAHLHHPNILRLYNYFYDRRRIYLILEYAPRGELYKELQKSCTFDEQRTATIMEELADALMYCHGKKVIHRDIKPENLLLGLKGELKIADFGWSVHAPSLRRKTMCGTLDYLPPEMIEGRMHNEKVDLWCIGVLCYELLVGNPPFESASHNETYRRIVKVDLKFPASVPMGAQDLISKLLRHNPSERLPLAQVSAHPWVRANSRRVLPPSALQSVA

Structure (SMILES)	IC50 (Aurora kinase B) [µM]	IC50 [1] [µM]	IC50 [2] [µM]	Activity [3] [%]	Activity [4] [%]	Activity [5] [%]	Activity [6] [%]	Activity [7] [%]	Activity (Sus scrofa domesticus) [%]	growth at 10 µM (A549) [%]	growth at 10 µM (NCI-H226) [%]	growth at 10 µM (NCI-H23) [%]	growth at 10 µM (NCI-H522) [%]	growth at 10 µM (SF-268) [%]	growth at 10 µM (SF-295) [%]	growth at 10 µM (SNB-75) [%]	growth at 10 µM (M14) [%]	growth at 10 µM (UACC-62) [%]	growth at 10 µM (IGROV-1) [%]	growth at 10 µM (OVCAR-5) [%]	other results
Cn1cc(C2=C(c3cn(CCCCCC(=O)O)c4ccccc34)C(=O)N(O)C2=O)c2ccccc21	> 10	> 10	> 10	106	36	15	22	64	80	94.6	91.3	95.2	88.3	99.5	102	86.5	103	99	103	96.3	growth at 10 µM (K562): 103%; growth at 10 µM (OVCAR-8): 87.7%; growth at 10 µM (NCI/ADR-RES): 100%; growth at 10 µM (ACHN): 92.9%; growth at 10 µM (CAKI-1): 86.8%; growth at 10 µM (MCF7): 90%; growth at 10 µM (MDA-MB-468): 102%; growth at 10 µM (NCI-H322M): 99.8%; growth at 10 µM (COLO 205): 109%; growth at 10 µM (786-0): 96.3%
N#CCCCCCn1cc(C2=C(c3cn(CCCCCC#N)c4ccccc34)C(=O)NC2=O)c2ccccc21	> 10	> 10	> 10	100	36	9	9	54	108	85.6	80.4	97.1	88.7	107	66.2	47.2	125	99.3	124	128	growth at 10 µM (EKVX): 86.5%; growth at 10 µM (OVCAR-8): 89.9%; growth at 10 µM (NCI/ADR-RES): 79%; growth at 10 µM (ACHN): 87%; growth at 10 µM (CAKI-1): 82.5%; growth at 10 µM (MCF7): 48.9%; growth at 10 µM (MDA-MB-468): 63.3%; growth at 10 µM (NCI-H322M): 103%; growth at 10 µM (COLO 205): 73.8%
O=C1C2=C(C(=O)N1O)c1cn(c3ccccc13)CCCCCCn1cc2c2ccccc21	> 10	> 10	> 10	108	89	87	107	68	103	108	101	99.7	108	105	107	91.4	102	100	113	98.2	growth at 10 µM (K562): 109%; growth at 10 µM (EKVX): 103%; growth at 10 µM (OVCAR-8): 110%; growth at 10 µM (NCI/ADR-RES): 108%; growth at 10 µM (ACHN): 109%; growth at 10 µM (CAKI-1): 95.7%; growth at 10 µM (MCF7): 99.6%; growth at 10 µM (MDA-MB-468): 97.5%; growth at 10 µM (NCI-H322M): 108%; growth at 10 µM (COLO 205): 110%
O=C(O)CCCCCn1cc(C2=C(c3c[nH]c4ccccc34)C(=O)N(O)C2=O)c2ccccc21	> 10	> 10	> 10	100	66	19	24	53	83	98.2	92.5	97.6	88.3	98.3	105	86	92.9	95.7	93.4	106	growth at 10 µM (K562): 94.8%; growth at 10 µM (OVCAR-8): 99.4%; growth at 10 µM (NCI/ADR-RES): 106%; growth at 10 µM (ACHN): 97.5%; growth at 10 µM (CAKI-1): 92.2%; growth at 10 µM (MCF7): 102%; growth at 10 µM (MDA-MB-468): 104%; growth at 10 µM (NCI-H322M): 101%; growth at 10 µM (COLO 205): 102%; growth at 10 µM (786-0): 93%
